The record followed here is patent US6472389B1, “Pyrrolo[1,2-b] pyridazine derivatives having sPLA2 inhibitory effect” (Shionogi & Co., Ltd., priority 1998, dated 2002).

Series [1] addresses T1, recombinant human secretory phospholipase A2 (Homo sapiens, UniProt P14555).
T1 sequence (P14555 21-144): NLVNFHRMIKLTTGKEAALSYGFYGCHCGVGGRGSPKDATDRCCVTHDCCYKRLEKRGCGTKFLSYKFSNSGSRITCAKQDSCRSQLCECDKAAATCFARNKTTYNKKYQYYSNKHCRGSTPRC
The experiment in a line: Inhibition test of human secretory phospholipase A2 (chromogenic assay, 96 well microtiterplate). The following applies: sPLA2 50 ng/well, 40° C., 30 minutes, OD 405 nm, substrate 1,2-bis(heptanoylthio)-1,2-dideoxy-sn-glycero-3-phospholylcholine. It counts as biochemical. An excerpt: Inhibition Test of Human Secretory Phospholipase A2
In order to identify and evaluate an inhibitor of recombinant human secretory phospholipase A2, the following chromogenic assay is utilized. The assay herein has been applied for high volume screening wherein 96 well microtiterplate is used. A general explanation for such assay is described in “Analysis of Human Synovial Fluid Phospholipase A2 on Short Chain Phosphatidylcholine-Mixed Micelles: Development of a Spectrophotometric Assay Suitable for a Micortiterplate Reader” (Analytical Biochemistry, 204, pp 190-197, 1992 by Laure. J. Reynolds. Lori L. Hughes and Edward A. Dennis: the disclosure of which is incorporated herein for reference.
Bovine Serum Albumin (fatty acid free) (1 g/L) (Sigma A-7030)
pH 7.5 (adjusted with NaOH)
pH 4.5 (adjusted with acetic acid)
1 mg of sPLA2 is dissolved in 1 ml of an enzyme buffer. Thereafter, the solution is maintained at 4° C.
In the assay, 5 μl of the solution is diluted with 1995 μl of the reaction buffer to be used.
198 mg of 5,5′-dithiobis-2-[…] (manufactured by Wako Pure Chemicals) is dissolved in 100 ml of H2O
100 mg of racemic 1,2-bis(heptanoylthio)-1,2-dideoxy-sn-glycero-3-phospholylcholine is dissolved in 1 ml of chloroform.
624.9 mg of Triton-X 100 is dissolved in the reaction buffer.
Enzyme Reaction: for 1 plate of Microtiterplate
1) 0.106 ml of the substrate solution is put in a centrifugal tube, and nitrogen gas is jetted to remove the solvent. 0.54 ml of Triton-X 100 is added thereto, the mixture is stirred, thereafter it is sonified in a bath type sonification to dissolve. To the resulting product are added 17.8 m1l of the reaction buffer and 0.46 ml of DTNB, and 0.18 ml each of the admixture is poured to wells of the 96 well microtiterplate.
2) 10 μl of a test compound (or solvent blank) are added in accordance with alignment of plates which has been previously set.
3) Incubation is effected at 40° C. for 15 minutes.
4) 20 μl of an enzyme solution (sPLA2) which has been previously diluted (50 ng/well) are added to start reaction (40° C., 30 minutes).
5) Changes in absorbancy for 30 minutes are measured by a plate reader, and inhibition activity was calculated (OD: 405 nm).
6) IC50 was determined by plotting log concentration with respect to inhibition values within 10% to 90% inhibiting range.

pIC50: −log10 of the molar value.

The compound `CCc1c(C(=O)C(N)=O)c2c(OCC(=O)OCc3ccccc3)cc(CN3CCOCC3)nn2c1Cc1ccccc1` [Compound I-30] came in with a melting point of 183 to 184 °C. Further, the pIC50 in series [1] was 5.34.

Take `CCc1c(C(=O)C(N)=O)c2c(OCC(=O)O)cc(C3CCCC3)nn2c1Cc1ccccc1` [Compound I-68]: the melting point was 250 to 252 °C (dec.). In series [1], the pIC50 is 7.60.

The compound `CCc1c(C(=O)C(N)=O)c2c(OCC(=O)OC)cc(C(C)C)nn2c1Cc1ccccc1` [Compound I-10] displayed a melting point of 174 to 175 °C. Also, the negative logarithm of the IC50 (pIC50) in series [1] is 6.53.

In the case of `CCc1c(C(=O)C(N)=O)c2c(OCC(=O)OC)cc(CN3C(=O)CCC3=O)nn2c1Cc1ccccc1` [Compound I-49], the melting point lay in the range of 188 to 189 °C. Moreover, the pIC50 in series [1] was 5.11.

`CCc1c(C(=O)C(N)=O)c2c(OCC(=O)O)cc(CN3CCCC3)nn2c1Cc1ccccc1` [Compound I-59]: the melting point is 228 to 231 °C (dec.). The pIC50 in series [1] was 5.97.
